Values after ≈ are worked out from the molar mass of the structure shown.
Columns and labels:
[1] = tested on: Bacillus megaterium ATCC 14945; assay: Antibacterial spectrum, agar plate dilution method; type: cell-based; details: Priestia megaterium, ATCC14945, 0.5% peptone agar, read-out: Minimum inhibitory concentration
[2] = tested on: Serratia marcescens GM 6484; assay: Antibacterial spectrum, agar plate dilution method; type: cell-based; details: GM6484, 0.5% peptone agar, read-out: Minimum inhibitory concentration
[3] = tested on: Proteus mirabilis IFO 3849; assay: Antibacterial spectrum, agar plate dilution method; type: cell-based; details: IFO3849, 0.5% peptone agar, read-out: Minimum inhibitory concentration
[4] = tested on: Proteus vulgaris IFO 3045; assay: Antibacterial spectrum, agar plate dilution method; type: cell-based; details: IFO3045, 0.5% peptone agar, read-out: Minimum inhibitory concentration
[5] = tested on: herpes simplex virus-I (HSV-I); assay: Antiviral activity, cytopathic effect of HSV-I on Vero cells; type: cell-based
Method: A medium containing a definite amount of NK84-0218 and herpes simplex virus-I (HSV-I) 5-10 TC ID50 are added onto a single layer of vero cells in a microplate having 96 wells and cultured in a 5% by volume carbon dioxide incubator at 37° C. for 96 to 120 hours. Then the antiviral activity of the test substance is determined by microscopically observing the cytopathic effect (CPE) of the HSV-I on the Vero cells. The inhibition is taken as effective when no CPE is observed in a well. For example, when CPE is observed in one well among ten at the same concentration, the inhibition ratio is 90%.

[6] = tested on: Bacillus subtilis PCI 219; assay: Antibacterial spectrum, agar plate dilution method; type: cell-based; details: PCI219, 0.5% peptone agar, read-out: Minimum inhibitory concentration
[7] = Solubility in solvents; type: physicochemical
Text: In order to isolate the antibiotic of the present invention, the culturing broth is purified in a manner conventionally used in isolating a metabolite of a microorganism from its culturing broth. […] For example, the culturing broth is adjusted to a pH value of 3.5 to 6.5, preferably 4 to 4.5, adsorbed by powdery active carbon, washed with water and eluted with a 50% aqueous acetone and the active fraction thus obtained is concentrated and lyophilized to give a brown crude powder. Then this powder is dissolved in methanol and insoluble substances are removed. The soluble portion is dried, dissolved in water, adsorbed by an active carbon column, washed with water and subjected to acetone linear concentration gradient elution with water and 50% aqueous acetone. The obtained active fraction is concentrated and lyophilized. The pale brown powder containing NK84-0218 thus obtained is dissolved in a small amount of water and packed into an Avicel column. Then it is developed with an aqueous alcohol and eluted with increasing the water content stepwise. The active fractions thus obtained are combined, concentrated and lyophilized. Subsequently the obtained powder is dissolved in a small amount of water and packed into an SP Sephadex® C-25(Na^+) column previously equilibrated with 0.02M sodium chloride. The active fractions eluted with 0.02M sodium chloride are desalted on active carbon to give a colorless powder. The powder thus purified is treated with water or an aqueous alcohol to give NK84-0218 in the form of colorless needles. The titer during the cultivation is determined by plate cup assay with Bacillus subtilis PCI 219.

[8] = tested on: gram-negative bacteria; assay: Antibacterial spectrum, summary in words; type: cell-based; details: agar plate dilution method
[9] = tested on: Bacillus polymyxa IAM 1210; assay: Antibacterial spectrum, agar plate dilution method; type: cell-based; details: Paenibacillus polymyxa, IAM1210, 0.5% peptone agar, read-out: Minimum inhibitory concentration
[10] = tested on: Candida albicans NIH 3147; assay: Antibacterial spectrum, agar plate dilution method; type: cell-based; details: NIH3147, 0.5% peptone agar, read-out: Minimum inhibitory concentration
[11] = tested on: Mycobacterium smegmatis ATCC 607; assay: Antibacterial spectrum, agar plate dilution method; type: cell-based; details: Mycolicibacterium smegmatis, ATCC607, 0.5% peptone agar, read-out: Minimum inhibitory concentration
[12] = tested on: Escherichia coli K-12; assay: Antibacterial spectrum, agar plate dilution method; type: cell-based; details: K12, 0.5% peptone agar, read-out: Minimum inhibitory concentration
[13] = tested on: Salmonella typhi 901 (MS-1); assay: Antibacterial spectrum, agar plate dilution method; type: cell-based; details: Salmonella enterica, read-out: Minimum inhibitory concentration
[14] = tested on: Pseudomonas aernginosa IFO 3445; assay: Antibacterial spectrum, agar plate dilution method; type: cell-based; details: IFO3445, 0.5% peptone agar, read-out: Minimum inhibitory concentration
[15] = tested on: Salmonella paratyphi 1015 (MS-1); assay: Antibacterial spectrum, agar plate dilution method; type: cell-based; details: Salmonella enterica, read-out: Minimum inhibitory concentration
[16] = tested on: Micrococcus luteus ATCC 9341; assay: Antibacterial spectrum, agar plate dilution method; type: cell-based; details: ATCC9341, 0.5% peptone agar, read-out: Minimum inhibitory concentration
[17] = tested on: Klebsiella pneumoniae PCI 602; assay: Antibacterial spectrum, agar plate dilution method; type: cell-based; details: PCI602, 0.5% peptone agar, read-out: Minimum inhibitory concentration
[18] = tested on: Micrococcus flavus ATCC 10240; assay: Antibacterial spectrum, agar plate dilution method; type: cell-based; details: ATCC10240, 0.5% peptone agar, read-out: Minimum inhibitory concentration
[19] = tested on: Escherichia coli NIHJ; assay: Antibacterial spectrum, agar plate dilution method; type: cell-based; details: 0.5% peptone agar, read-out: Minimum inhibitory concentration
[20] = Acute toxicity on mice; type: in vivo
[21] = tested on: Staphylococcus aureus EDA 209P; assay: Antibacterial spectrum, agar plate dilution method; type: cell-based; details: 0.5% peptone agar, read-out: Minimum inhibitory concentration
[22] = tested on: gram-positive bacteria; assay: Antibacterial spectrum, summary in words; type: cell-based; details: S. aureus FDA 209P, Bacillus including B. subtilis PCI 219 and B. cereus IAM 1072, Micrococcus flavus ATCC 10240
[23] = tested on: Bacillus subtilis ATCC 6633; assay: Antibacterial spectrum, agar plate dilution method; type: cell-based; details: ATCC6633, 0.5% peptone agar, read-out: Minimum inhibitory concentration
[24] = tested on: HeLa cell; assay: Anti-HeLa cell activity; type: cell-based; details: for Cells/plate: 72 hours after the addition
Method: *The number of cells 72 hours after the addition of NK840218.

[25] = tested on: Proteus morganii IFO 3168; assay: Antibacterial spectrum, agar plate dilution method; type: cell-based; details: Morganella morganii, IFO3168, 0.5% peptone agar, read-out: Minimum inhibitory concentration
[26] = tested on: Bacillus cereus IAM 1072; assay: Antibacterial spectrum, agar plate dilution method; type: cell-based; details: IAM1072, 0.5% peptone agar, read-out: Minimum inhibitory concentration
[27] = tested on: Bacillus licheniformis IFO 12107; assay: Antibacterial spectrum, agar plate dilution method; type: cell-based; details: IFO12107, 0.5% peptone agar, read-out: Minimum inhibitory concentration
[28] = tested on: Enterobacter aerogenes ATCC 13048 (MS-1); assay: Antibacterial spectrum, agar plate dilution method; type: cell-based; details: Klebsiella aerogenes, ATCC13048, 0.5% peptone agar, read-out: Minimum inhibitory concentration
[29] = tested on: Salmonella enteritidis G14 (MS-1); assay: Antibacterial spectrum, agar plate dilution method; type: cell-based; details: Salmonella enterica, 0.5% peptone agar, read-out: Minimum inhibitory concentration

Nc1ncnc2c1ncn2C1OC(CO)C1CO (centres unmarked) [NK84-0218]
MIC [1]: 1.56 µg/mL (≈ 6.21 µM)
MIC [2]: > 100 µg/mL
MIC [3]: > 100 µg/mL
MIC [4]: > 100 µg/mL
antiviral activity (in words) [5]: exhibits an antiviral activity
MIC [6]: < 0.1 µg/mL
Solubility ([7]; in dimethyl sulfoxide): soluble
Solubility ([7]; in ethanol): soluble
Solubility ([7]; in methanol): soluble
Solubility ([7]; in other organic solvents such as propanol, acetone, ethyl acetate, ether and benzene): hardly or not soluble
Solubility ([7]; in water): soluble
effect on gram-negative bacteria [8]: no effect
MIC [9]: < 0.1 µg/mL
MIC [10]: > 100 µg/mL
MIC [11]: > 100 µg/mL
MIC [12]: > 100 µg/mL
MIC [13]: > 100 µg/mL
MIC [14]: > 100 µg/mL
MIC [15]: > 100 µg/mL
MIC [16]: 3.12 µg/mL (≈ 12.4 µM)
MIC [17]: > 100 µg/mL
MIC [18]: 6.25 µg/mL (≈ 24.9 µM)
MIC [19]: > 100 µg/mL
acute toxicity compared with various known nucleoside antibiotics ([20]; i.v.): lower than those of various known nucleoside antibiotics
LD50 ([20]; mouse, in vivo, iv): ≥ 100 mg/kg
MIC [21]: < 0.1 µg/mL
inhibiting the growth of gram-positive bacteria [22]: intense effects of inhibiting the growth
MIC [23]: < 0.1 µg/mL
Cells/plate ([24]; 0.39 μg/ml): 14.35 × 10^5
Cells/plate ([24]; 1.56 μg/ml): 14.64 × 10^5
Cells/plate ([24]; 6.25 μg/ml): 13.91 × 10^5
Cells/plate ([24]; 25 μg/ml): 13.47 × 10^5
Cells/plate ([24]; 100 μg/ml): 2.78 × 10^5
inhibition at 0.39 µg/mL ([24]; Homo sapiens, HeLa, 0.39 μg/ml, 72 hours, read-out: Inhibition ratio): 3.58%
inhibition at 1.56 µg/mL ([24]; Homo sapiens, HeLa, 1.56 μg/ml, 72 hours, read-out: Inhibition ratio): 1.26%
inhibition at 6.25 µg/mL ([24]; Homo sapiens, HeLa, 6.25 μg/ml, 72 hours, read-out: Inhibition ratio): 6.94%
inhibition at 25 µg/mL ([24]; Homo sapiens, HeLa, 25 μg/ml, 72 hours, read-out: Inhibition ratio): 10.2%
inhibition at 100 µg/mL ([24]; Homo sapiens, HeLa, 100 μg/ml, 72 hours, read-out: Inhibition ratio): 93.4%
IC50 ([24]; Homo sapiens, HeLa cell, 72 hours): ~47 µg/mL (≈ 187 µM)
MIC [25]: > 100 µg/mL
MIC [26]: < 0.1 µg/mL
MIC [27]: 6.25 µg/mL (≈ 24.9 µM)
MIC [28]: > 100 µg/mL
MIC [29]: > 100 µg/mL

From patent publication US4904585A, “Novel antibiotic NK84-0218 and process for the production of the same” (Nippon Kayaku Kabushiki Kaisha, priority 1984, dated 1990)
